Data reported in the supplement of paper PMC11061612.

What was measured:
[1] = system: A3-KAW (B-Cell Non-Hodgkin's Lymphoma); assay: Bliss excess, mean over the matrix (fraction); higher = more synergy
Summary of the method: (§1)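 After 24 hours at 37°C and 5% CO2 in 1536-well plates, cells in DMEM/F12 or RPMI plus 10% FBS received two-drug dose matrices for 72 hours. Viability came from CellTiter-Glo 2.0 luminescence and was scaled as inhibition, anchored at 0 by vehicle wells and at 1 by blank wells. Combination Emax is taken as the second-highest inhibition in the matrix, and Bliss excess as the observed combination effect less EA + EB − EA·EB, with EA and EB the single-agent effects.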

A498 (Kidney Carcinoma) = assay: as above
Summary of the method: as §1

[2] = system: A549 (Lung Adenocarcinoma); assay: as above
Summary of the method: as §1

[3] = system: BICR22 (Oral Cavity Carcinoma); assay: as above
Summary of the method: as §1

[4] = system: CAL-29 (Bladder Carcinoma); assay: as above
Summary of the method: as §1

CAS-1 (Glioblastoma) = assay: as above
Summary of the method: as §1

[5] = system: COLO-320-HSR (Colorectal Carcinoma); assay: as above
Summary of the method: as §1

[6] = system: COR-L311 (Small Cell Lung Carcinoma); assay: as above
Summary of the method: as §1

[7] = system: NCI-H1581 (Non-Small Cell Lung Carcinoma); assay: as above
Summary of the method: as §1

[8] = system: NCI-H1650 (Lung Adenocarcinoma); assay: as above
Summary of the method: as §1

[9] = system: NCI-H1666 (Lung Adenocarcinoma); assay: as above
Summary of the method: as §1

NY (Osteosarcoma) = assay: as above
Summary of the method: as §1

PA-1 (Ovarian Carcinoma) = assay: as above
Summary of the method: as §1

[10] = system: SK-MES-1 (Squamous Cell Lung Carcinoma); assay: as above
Summary of the method: as §1

[11] = system: SK-MG-1 (Low Grade Glioma); assay: as above
Summary of the method: as §1

[12] = system: TT (Thyroid Gland Carcinoma); assay: as above
Summary of the method: as §1

U-2-OS (Osteosarcoma) = assay: as above
Summary of the method: as §1

FU97 (Gastric Carcinoma) = assay: combination Emax (second highest fraction inhibited in the dose matrix, 72 h); higher = more inhibition; extreme values may be limits of the assay
Summary of the method: as §1

[13] = system: HCC1954 (Breast Carcinoma); assay: as above
Summary of the method: as §1

[14] = system: TT2609-C02 (Thyroid Gland Carcinoma); assay: as above
Summary of the method: as §1
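For Bliss excess, mean over the matrix in this document: after 72 h of two-drug dosing.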

In the case of `COc1cc2c(cc1OCCCCCOc1cc3c(cc1OC)C(=O)N1C=C(C)C[C@H]1C=N3)N=C[C@@H]1CC(C)=CN1C2=O` [SG3199] + O=C(c1cc(Cc2n[nH]c(=O)c3ccccc23)ccc1F)N1CCN(C(=O)C2CC2)CC1 [Olaparib] (first compound max 0.001 µM, 7x7, partner max 10 µM), the Bliss excess [1] is reported as -0.0286, the Bliss excess (A498 (Kidney Carcinoma)) is reported as -0.0336 and the Bliss excess [2] is reported as -0.0226. It also gave a Bliss excess [3] of -0.0473, a Bliss excess [4] of -0.0154 and a Bliss excess (CAS-1 (Glioblastoma)) of -0.0058. For the same compound, the Bliss excess [5] was -0.0213, the Bliss excess [6] was 0.0282 and the Bliss excess [7] was -0.0322. The Bliss excess [8] was -0.0575, the Bliss excess [9] was -0.0477 and the Bliss excess (NY (Osteosarcoma)) was -0.0456. For the same compound, the Bliss excess (PA-1 (Ovarian Carcinoma)) was 0.0131, the Bliss excess [10] was -0.0267 and the Bliss excess [11] was -0.0009. For the same compound, the Bliss excess [12] was -0.0645, the Bliss excess (U-2-OS (Osteosarcoma)) was -0.0203 and the “combination Emax” value (FU97 (Gastric Carcinoma)) was 0.156. The “combination Emax” value [13] was 0.165 and the “combination Emax” value [14] was 0.166.

In the case of `CCc1c2c(nc3ccc(O)cc13)-c1cc3c(c(=O)n1C2)COC(=O)[C@]3(O)CC` [SN-38] + CN(C)CCCOc1ccc(-c2ccc3ncc4c(c3c2)n(C2CCOCC2)c(=O)n4C)cn1 [AZD0156] (first compound max 0.3 µM, 7x7, partner max 1 µM), the Bliss excess [1] is reported as 0.0988, the Bliss excess (A498 (Kidney Carcinoma)) is reported as -0.0444 and the Bliss excess [2] is reported as 0.0128. The Bliss excess [3] was 0.0243, the Bliss excess [4] was -0.028 and the Bliss excess (CAS-1 (Glioblastoma)) was -0.0101. The Bliss excess [5] was 0.0243, the Bliss excess [6] was -0.152 and the Bliss excess [7] was 0.016. The Bliss excess [8] was -0.0079, the Bliss excess [9] was 0.0313 and the Bliss excess (NY (Osteosarcoma)) was -0.0288. For the same compound, the Bliss excess (PA-1 (Ovarian Carcinoma)) was 0.0713, the Bliss excess [10] was -0.0272 and the Bliss excess [11] was 0.23. For the same compound, the Bliss excess [12] was -0.119, the Bliss excess (U-2-OS (Osteosarcoma)) was -0.0193 and the “combination Emax” value (FU97 (Gastric Carcinoma)) was 0.187. For the same compound, the “combination Emax” value [13] was 0.376 and the “combination Emax” value [14] was 0.441.

`C[C@@H](c1ccc2nccn2c1)n1nnc2ncc(-c3cnn(C)c3)nc21` [Savolitinib] + CC1(C)CCC(CN2CCN(c3ccc(C(=O)NS(=O)(=O)c4ccc(NCC5CCOCC5)c([N+](=O)[O-])c4)c(Oc4cnc5[nH]ccc5c4)c3)CC2)=C(c2ccc(Cl)cc2)C1 [Venetoclax] (first compound max 1 µM, 7x7, partner max 1 µM) was tested, and the Bliss excess [1] was -0.023, the Bliss excess (A498 (Kidney Carcinoma)) was -0.0973 and the Bliss excess [2] was -0.0378. The Bliss excess [3] was -0.0353, the Bliss excess [4] was -0.0655 and the Bliss excess (CAS-1 (Glioblastoma)) was -0.055. For the same compound, the Bliss excess [5] was -0.0223, the Bliss excess [6] was -0.022 and the Bliss excess [7] was -0.0697. It also gave a Bliss excess [8] of -0.0716, a Bliss excess [9] of -0.0595 and a Bliss excess (NY (Osteosarcoma)) of -0.0147. It also gave a Bliss excess (PA-1 (Ovarian Carcinoma)) of -0.0163, a Bliss excess [10] of -0.0505 and a Bliss excess [11] of -0.0549. The Bliss excess [12] was -0.0724, the Bliss excess (U-2-OS (Osteosarcoma)) was -0.0397 and the “combination Emax” value (FU97 (Gastric Carcinoma)) was 0.13. For the same compound, the “combination Emax” value [13] was 0.136 and the “combination Emax” value [14] was 0.0924.

In the case of `C[C@@H](c1ccc2nccn2c1)n1nnc2ncc(-c3cnn(C)c3)nc21` [Savolitinib] + Cc1c2c(nn1C)CSCc1cc(n(C)n1)CSc1cc(c3ccccc3c1)OCCCc1c(C(=O)O)n(C)c3c-2c(Cl)ccc13 [AZD5991] (first compound max 1 µM, 7x7, partner max 1 µM), the Bliss excess [1] is reported as -0.0499, the Bliss excess (A498 (Kidney Carcinoma)) is reported as -0.032 and the Bliss excess [2] is reported as -0.0279. For the same compound, the Bliss excess [3] was -0.0321, the Bliss excess [4] was -0.0474 and the Bliss excess (CAS-1 (Glioblastoma)) was -0.0584. The Bliss excess [5] was -0.0464, the Bliss excess [6] was -0.0246 and the Bliss excess [7] was -0.0209. It also gave a Bliss excess [8] of -0.0634, a Bliss excess [9] of -0.0577 and a Bliss excess (NY (Osteosarcoma)) of -0.0288. For the same compound, the Bliss excess (PA-1 (Ovarian Carcinoma)) was -0.0266, the Bliss excess [10] was -0.0361 and the Bliss excess [11] was -0.0648. The Bliss excess [12] was -0.0102, the Bliss excess (U-2-OS (Osteosarcoma)) was -0.0271 and the “combination Emax” value (FU97 (Gastric Carcinoma)) was 0.164. The “combination Emax” value [13] was 0.85 and the “combination Emax” value [14] was 0.156.

`Cn1cnc2c(F)c(Nc3ccc(Br)cc3Cl)c(C(=O)NOCCO)cc21` [Selumetinib] + C=CCn1c(=O)c2cnc(Nc3ccc(N4CCN(C)CC4)cc3)nc2n1-c1cccc(C(C)(C)O)n1 [AZD1775] (first compound max 10 µM, partner max 1 µM) showed a Bliss excess [1] of -0.0575, a Bliss excess (A498 (Kidney Carcinoma)) of -0.0218 and a Bliss excess [2] of -0.0741. The Bliss excess [3] was -0.0362, the Bliss excess [4] was 0.0074 and the Bliss excess (CAS-1 (Glioblastoma)) was -0.0342. For the same compound, the Bliss excess [5] was -0.0657, the Bliss excess [6] was -0.0518 and the Bliss excess [7] was 0.0258. The Bliss excess [8] was -0.0792, the Bliss excess [9] was -0.0542 and the Bliss excess (NY (Osteosarcoma)) was -0.071. For the same compound, the Bliss excess (PA-1 (Ovarian Carcinoma)) was -0.001, the Bliss excess [10] was -0.0469 and the Bliss excess [11] was -0.106. The Bliss excess [12] was -0.0599, the Bliss excess (U-2-OS (Osteosarcoma)) was -0.0328 and the “combination Emax” value (FU97 (Gastric Carcinoma)) was 0.364. The “combination Emax” value [13] was 0.397 and the “combination Emax” value [14] was 0.655.

`Cn1cnc2c(F)c(Nc3ccc(Br)cc3Cl)c(C(=O)NOCCO)cc21` [Selumetinib] + CC(C)n1c(=O)n(C)c2cnc3cc(F)c(-c4ccc(OCCCN5CCCCC5)nc4)cc3c21 [AZD1390] (first compound max 10 µM, 7x7, partner max 0.3 µM) showed a Bliss excess [1] of 0.0678, a Bliss excess (A498 (Kidney Carcinoma)) of -0.0489 and a Bliss excess [2] of -0.0534. For the same compound, the Bliss excess [3] was -0.027, the Bliss excess [4] was -0.0073 and the Bliss excess (CAS-1 (Glioblastoma)) was -0.053. For the same compound, the Bliss excess [5] was -0.0182, the Bliss excess [6] was -0.0541 and the Bliss excess [7] was 0.0074. It also gave a Bliss excess [8] of -0.0572, a Bliss excess [9] of 0.0058 and a Bliss excess (NY (Osteosarcoma)) of -0.0149. The Bliss excess (PA-1 (Ovarian Carcinoma)) was 0.0162, the Bliss excess [10] was -0.0487 and the Bliss excess [11] was -0.049. For the same compound, the Bliss excess [12] was -0.0364, the Bliss excess (U-2-OS (Osteosarcoma)) was -0.0464 and the “combination Emax” value (FU97 (Gastric Carcinoma)) was 0.273. The “combination Emax” value [13] was 0.227 and the “combination Emax” value [14] was 0.663.

`Cn1cnc2c(F)c(Nc3ccc(Br)cc3Cl)c(C(=O)NOCCO)cc21` [Selumetinib] + CCN(CCO)CCCOc1ccc2c(Nc3cc(CC(=O)Nc4cccc(F)c4)[nH]n3)ncnc2c1 [AZD2811] (first compound max 10 µM, 7x7, partner max 1 µM) showed a Bliss excess [1] of 0.165, a Bliss excess (A498 (Kidney Carcinoma)) of 0.002 and a Bliss excess [2] of 0.0248. The Bliss excess [3] was -0.0731, the Bliss excess [4] was 0.0023 and the Bliss excess (CAS-1 (Glioblastoma)) was -0.0349. For the same compound, the Bliss excess [5] was -0.0398, the Bliss excess [6] was -0.0546 and the Bliss excess [7] was -0.0775. It also gave a Bliss excess [8] of -0.0333, a Bliss excess [9] of -0.0506 and a Bliss excess (NY (Osteosarcoma)) of -0.0102. It also gave a Bliss excess (PA-1 (Ovarian Carcinoma)) of -0.0998, a Bliss excess [10] of -0.048 and a Bliss excess [11] of -0.0245. For the same compound, the Bliss excess [12] was -0.0472, the Bliss excess (U-2-OS (Osteosarcoma)) was -0.0111 and the “combination Emax” value (FU97 (Gastric Carcinoma)) was 0.305. For the same compound, the “combination Emax” value [13] was 0.29 and the “combination Emax” value [14] was 0.622.

`Cn1cnc2c(F)c(Nc3ccc(Br)cc3Cl)c(C(=O)NOCCO)cc21` [Selumetinib] + C[C@@H]1COCCN1C2=NC(=NC(=C2)C3(CC3)[S@](=N)(=O)C)C4=C5C=CNC5=NC=C4 [AZD6738] (first compound max 10 µM, 7x7, partner max 10 µM) gave a Bliss excess [1] of 0.061, a Bliss excess (A498 (Kidney Carcinoma)) of -0.023 and a Bliss excess [2] of -0.0173. The Bliss excess [3] was -0.0834, the Bliss excess [4] was 0.0155 and the Bliss excess (CAS-1 (Glioblastoma)) was -0.0163. It also gave a Bliss excess [5] of -0.0678, a Bliss excess [6] of -0.056 and a Bliss excess [7] of -0.0025. It also gave a Bliss excess [8] of -0.0315, a Bliss excess [9] of -0.0124 and a Bliss excess (NY (Osteosarcoma)) of 0.0613. It also gave a Bliss excess (PA-1 (Ovarian Carcinoma)) of 0.0267, a Bliss excess [10] of -0.025 and a Bliss excess [11] of 0.0158. The Bliss excess [12] was -0.0154, the Bliss excess (U-2-OS (Osteosarcoma)) was -0.0443 and the “combination Emax” value (FU97 (Gastric Carcinoma)) was 0.333. For the same compound, the “combination Emax” value [13] was 0.432 and the “combination Emax” value [14] was 0.506.
